Read-outs that look alike come from different tables or passages of the source.

Data set [1] has as its system primary mouse hepatocytes. Put plainly: Class prediction true GTX vs false GTX by PAM from hepatocyte gene expression. Here is the method: PAM uses gene expression data to calculate the shrunken centroid for each class and identifies the specific genes that determine the centroid most. Based on the nearest shrunken centroid, PAM is also capable of predicting to which class an unknown sample belongs (27). Class prediction was performed after 24 h and 48 h of exposure.
For this analysis, the gene list with differentially expressed probe sets was used. For each exposure period, 3 sets of genes (classifiers) were generated by PAM, using all ten treatments, based on the smallest estimated misclassification error rate (generated by 10-fold cross-validation) and a >80% predicted test probability. This was done by using 2 experiments as training set and the third experiment for validation. This was done for all 3 possible combinations, each time leaving out another experiment. For each time point, the classifiers that were in common between the three training sets, were set as the final classifier set for that time point
For the purpose of validating the class discrimination models with the final classifier sets, gene expression data were generated for two additional true GTX compounds, phenacetin and DMBA, and for three False GTX compounds, cur, ethylacrylate and resorcinol and the vehicle control for exposure periods of 24 and 48 h.

The conditions of data set [2]: cited from earlier work.
[3] abbreviates: PAM class prediction, 24 h, Exp 1.
The mark [4] stands for this setting: PAM class prediction, 24 h, Exp 2.
Where [5] appears, read: PAM class prediction, 24 h, Exp 3.
The mark [6] stands for this setting: PAM class prediction, 48 h, Exp 1.
Where [7] appears, read: PAM class prediction, 48 h, Exp 2.
Where [8] appears, read: PAM class prediction, 48 h, Exp 3.
Where [9] appears, read: known class of the validation compound (GTX = true GTX, FP-GTX = false GTX).
Setting [10] is: 24 h exposure, independent triplicate treatments.
Where [11] appears, read: 48 h exposure, independent triplicate treatments.

As for `CCOc1ccc(NC(C)=O)cc1` [Phen], in data set [1] (setting [3]), the “Prediction 24 h Exp 1” value is “GTX”. Besides, in data set [1] (setting [4]), the “Prediction 24 h Exp 2” value is recorded as “GTX”. Besides, the “Prediction 24 h Exp 3” value in data set [1] (setting [5]) is recorded as “GTX”. For the same compound, the “Prediction 48 h Exp 1” value in data set [1] (setting [6]) is recorded as “FP-GTX”. Besides, the “Prediction 48 h Exp 2” value in data set [1] (setting [7]) is given as “FP-GTX”. Besides, the “Prediction 48 h Exp 3” value in data set [1] (setting [8]) is recorded as “FP-GTX”. Also, the Genotoxic class entry in data set [2] (setting [9]) is reported as “GTX”.
In the case of `Cc1c2ccccc2c(C)c2c1ccc1ccccc12` [DMBA], the “class prediction (true GTX / false GTX)” value in data set [1] (setting [10]) and in data set [1] (setting [11]) was “classified correctly” in each case. The “Prediction 24 h Exp 1” value in data set [1] (setting [3]) is reported as “GTX”. The “Prediction 24 h Exp 2” value in data set [1] (setting [4]) is “GTX”. Also, in data set [1] (setting [5]), the “Prediction 24 h Exp 3” value is listed as “GTX”. The “Prediction 48 h Exp 1” value in data set [1] (setting [6]) is on record as “GTX”. In addition, the “Prediction 48 h Exp 2” value in data set [1] (setting [7]) was “GTX”. Besides, the “Prediction 48 h Exp 3” value in data set [1] (setting [8]) is on record as “GTX”. Also, the predicted test probability in data set [1] (both time points (24 and 48 h)) is given as 100%. The Genotoxic class entry in data set [2] (setting [9]) is recorded as “GTX”.
In the case of `COc1cc(/C=C/C(=O)CC(=O)/C=C/c2ccc(O)c(OC)c2)ccc1O` [cur], in data set [1], the “Prediction 24 h Exp 1” value was “FP-GTX”, the “Prediction 24 h Exp 2” value is reported as “FP-GTX”, the “Prediction 24 h Exp 3” value is reported as “FP-GTX” and the “Prediction 48 h Exp 1” value is given as “FP-GTX”. In addition, in data set [1], the “Prediction 48 h Exp 2” value is given as “FP-GTX”, the “Prediction 48 h Exp 3” value is recorded as “FP-GTX”, the “class prediction (true GTX / false GTX)” value was “classified correctly” and the predicted test probability was 100%. For the same compound, the Genotoxic class result in data set [2] (in vivo) is listed as “FP-GTX”.
Take `C=CC(=O)OCC` [ethylacrylate]: the “class prediction (true GTX / false GTX)” value in data set [1] (setting [10]) and in data set [1] (setting [11]) was “classified correctly” each time. Also, the “Prediction 24 h Exp 1” value in data set [1] (setting [3]) is recorded as “FP-GTX”. The “Prediction 24 h Exp 2” value in data set [1] (setting [4]) is “FP-GTX”. In data set [1] (setting [5]), the “Prediction 24 h Exp 3” value is recorded as “FP-GTX”. The “Prediction 48 h Exp 1” value in data set [1] (setting [6]) is “FP-GTX”. Moreover, the “Prediction 48 h Exp 2” value in data set [1] (setting [7]) is reported as “FP-GTX”. Also, the “Prediction 48 h Exp 3” value in data set [1] (setting [8]) was “FP-GTX”. The predicted test probability in data set [1] (both time points (24 and 48 h)) is recorded as 100%. Moreover, the Genotoxic class entry in data set [2] (in vivo) is reported as “FP-GTX”.
With `Oc1cccc(O)c1` [resorcinol], in data set [1], the “Prediction 24 h Exp 1” value is recorded as “FP-GTX”, the “Prediction 24 h Exp 2” value is “FP-GTX”, the “Prediction 24 h Exp 3” value is reported as “FP-GTX” and the “Prediction 48 h Exp 1” value is “FP-GTX”. Besides, in data set [1], the “Prediction 48 h Exp 2” value was “FP-GTX”, the “Prediction 48 h Exp 3” value is reported as “FP-GTX” and the “class prediction (true GTX / false GTX)” value is listed as “classified correctly”. Besides, the predicted test probability in data set [1] (mouse) is 100%. For the same compound, in data set [2] (setting [9]), the Genotoxic class result is given as “FP-GTX”.

These data come from patent publication US20120122727A1, “IN VITRO METHOD FOR PREDICTING WHETHER A COMPOUND IS GENOTOXIC IN VIVO” (priority 2009, published 2012).
